In ChEMBL document CHEMBL4004803, “Syntheses and antibacterial activity of soluble 9-bromo substituted indolizinoquinoline-5,12-dione derivatives” (Eur J Med Chem, 2017):
Values after ≈ are worked out from the molar mass of the structure shown.

Columns and labels:
Format in all cases: functional
Staphylococcus aureus [1] = experiment: Antibacterial activity against methicillin-resistant Staphylococcus aureus 110910-2 clinical isolate after 20 to 24 hrs by two-fold microdilution method
Staphylococcus aureus [2] = experiment: Antibacterial activity against methicillin-resistant Staphylococcus aureus 110325 clinical isolate after 20 to 24 hrs by two-fold microdilution method
Staphylococcus aureus [3] = experiment: Antibacterial activity against methicillin-resistant Staphylococcus aureus 1212221 clinical isolate after 20 to 24 hrs by two-fold microdilution method
Staphylococcus aureus [4] = experiment: Antibacterial activity against methicillin-resistant Staphylococcus aureus 20339 clinical isolate after 20 to 24 hrs by two-fold microdilution method
Staphylococcus aureus [5] = experiment: Antibacterial activity against methicillin-resistant Staphylococcus aureus ATCC 43300 after 20 to 24 hrs by two-fold microdilution method
Staphylococcus aureus [6] = experiment: Antibacterial activity against methicillin-resistant Staphylococcus aureus 724244 clinical isolate after 20 to 24 hrs by two-fold microdilution method
Staphylococcus aureus [7] = experiment: Antibacterial activity against methicillin-resistant Staphylococcus aureus 112047 clinical isolate after 20 to 24 hrs by two-fold microdilution method
Staphylococcus aureus [8] = experiment: Antibacterial activity against methicillin-resistant Staphylococcus aureus 1025022 clinical isolate after 20 to 24 hrs by two-fold microdilution method
Staphylococcus aureus [9] = experiment: Antibacterial activity against methicillin-resistant Staphylococcus aureus 125025 clinical isolate after 20 to 24 hrs by two-fold microdilution method
Staphylococcus aureus [10] = experiment: Antibacterial activity against methicillin-resistant Staphylococcus aureus 130031 clinical isolate after 20 to 24 hrs by two-fold microdilution method
Staphylococcus aureus [11] = experiment: Antibacterial activity against methicillin-resistant Staphylococcus aureus 1024004-2 clinical isolate after 20 to 24 hrs by two-fold microdilution method
Staphylococcus aureus [12] = experiment: Antibacterial activity against methicillin-resistant Staphylococcus aureus 1211026 clinical isolate after 20 to 24 hrs by two-fold microdilution method
Staphylococcus aureus [13] = experiment: Antibacterial activity against methicillin-resistant Staphylococcus aureus 20106-2 clinical isolate after 20 to 24 hrs by two-fold microdilution method
Enterococcus faecalis = experiment: Antibacterial activity against Enterococcus faecalis ATCC 29212 after 20 to 24 hrs by two-fold microdilution method
Escherichia coli = experiment: Antibacterial activity against Escherichia coli ATCC 25922 after 20 to 24 hrs by two-fold microdilution method
Staphylococcus aureus [14] = experiment: Antibacterial activity against methicillin-resistant Staphylococcus aureus 10281-2 clinical isolate after 20 to 24 hrs by two-fold microdilution method
Staphylococcus aureus [15] = experiment: Antibacterial activity against methicillin-resistant Staphylococcus aureus 523005 clinical isolate after 20 to 24 hrs by two-fold microdilution method
Staphylococcus aureus [16] = experiment: Antibacterial activity against methicillin-resistant Staphylococcus aureus 112106 clinical isolate after 20 to 24 hrs by two-fold microdilution method
Staphylococcus aureus [17] = experiment: Antibacterial activity against methicillin-resistant Staphylococcus aureus 1101016 clinical isolate after 20 to 24 hrs by two-fold microdilution method
Staphylococcus aureus [18] = experiment: Antibacterial activity against methicillin-resistant Staphylococcus aureus 502025 clinical isolate after 20 to 24 hrs by two-fold microdilution method
Staphylococcus aureus [19] = experiment: Antibacterial activity against methicillin-resistant Staphylococcus aureus 305026 clinical isolate after 20 to 24 hrs by two-fold microdilution method
Staphylococcus aureus [20] = experiment: Antibacterial activity against methicillin-resistant Staphylococcus aureus 1212057-1 clinical isolate after 20 to 24 hrs by two-fold microdilution method
Staphylococcus aureus [21] = experiment: Antibacterial activity against methicillin-resistant Staphylococcus aureus 1108204 clinical isolate after 20 to 24 hrs by two-fold microdilution method
Staphylococcus aureus [22] = experiment: Antibacterial activity against methicillin-resistant Staphylococcus aureus 11819 clinical isolate after 20 to 24 hrs by two-fold microdilution method
[23] = system: Staphylococcus epidermidis; experiment: Antibacterial activity against Staphylococcus epidermidis ATCC 12228 after 20 to 24 hrs by two-fold microdilution method
Staphylococcus aureus [24] = experiment: Antibacterial activity against methicillin-resistant Staphylococcus aureus 212014 clinical isolate after 20 to 24 hrs by two-fold microdilution method
[25] = system: Staphylococcus haemolyticus; experiment: Antibacterial activity against Staphylococcus haemolyticus CICC 10373 after 20 to 24 hrs by two-fold microdilution method
Staphylococcus aureus [26] = experiment: Antibacterial activity against methicillin-resistant Staphylococcus aureus 1107027 clinical isolate after 20 to 24 hrs by two-fold microdilution method
Streptococcus pneumoniae = experiment: Antibacterial activity against Streptococcus pneumoniae ATCC 6305 after 20 to 24 hrs by two-fold microdilution method
Staphylococcus aureus [27] = experiment: Antibacterial activity against methicillin-resistant Staphylococcus aureus 1103006 clinical isolate after 20 to 24 hrs by two-fold microdilution method
Staphylococcus aureus [28] = experiment: Antibacterial activity against methicillin-resistant Staphylococcus aureus 123152 clinical isolate after 20 to 24 hrs by two-fold microdilution method
Staphylococcus aureus [29] = experiment: Antibacterial activity against methicillin-resistant Staphylococcus aureus 519238 clinical isolate after 20 to 24 hrs by two-fold microdilution method
Staphylococcus aureus [30] = experiment: Antibacterial activity against methicillin-resistant Staphylococcus aureus 531026 clinical isolate after 20 to 24 hrs by two-fold microdilution method
Staphylococcus aureus [31] = experiment: Antibacterial activity against methicillin-resistant Staphylococcus aureus 19950 clinical isolate after 20 to 24 hrs by two-fold microdilution method
Staphylococcus aureus [32] = experiment: Antibacterial activity against methicillin-resistant Staphylococcus aureus 921026 clinical isolate after 20 to 24 hrs by two-fold microdilution method
Staphylococcus aureus [33] = experiment: Antibacterial activity against methicillin-resistant Staphylococcus aureus 1215028 clinical isolate after 20 to 24 hrs by two-fold microdilution method
Staphylococcus aureus [34] = experiment: Antibacterial activity against methicillin-resistant Staphylococcus aureus 121026 clinical isolate after 20 to 24 hrs by two-fold microdilution method
Staphylococcus aureus [35] = experiment: Antibacterial activity against methicillin-resistant Staphylococcus aureus 103054 clinical isolate after 20 to 24 hrs by two-fold microdilution method
Staphylococcus aureus [36] = experiment: Antibacterial activity against methicillin-resistant Staphylococcus aureus 1106003 clinical isolate after 20 to 24 hrs by two-fold microdilution method
Staphylococcus aureus [37] = experiment: Antibacterial activity against methicillin-resistant Staphylococcus aureus 503025 clinical isolate after 20 to 24 hrs by two-fold microdilution method
Staphylococcus aureus [38] = experiment: Antibacterial activity against methicillin-resistant Staphylococcus aureus 625032 clinical isolate after 20 to 24 hrs by two-fold microdilution method
Staphylococcus aureus [39] = experiment: Antibacterial activity against methicillin-resistant Staphylococcus aureus 118038 clinical isolate after 20 to 24 hrs by two-fold microdilution method
Staphylococcus aureus [40] = experiment: Antibacterial activity against methicillin-resistant Staphylococcus aureus 122820-2 clinical isolate after 20 to 24 hrs by two-fold microdilution method
Staphylococcus aureus [41] = experiment: Antibacterial activity against methicillin-resistant Staphylococcus aureus 912014 clinical isolate after 20 to 24 hrs by two-fold microdilution method
Staphylococcus aureus [42] = experiment: Antibacterial activity against methicillin-resistant Staphylococcus aureus 110432 clinical isolate after 20 to 24 hrs by two-fold microdilution method
Staphylococcus aureus [43] = experiment: Antibacterial activity against methicillin-resistant Staphylococcus aureus 219236 clinical isolate after 20 to 24 hrs by two-fold microdilution method
Staphylococcus aureus [44] = experiment: Antibacterial activity against methicillin-resistant Staphylococcus aureus 109244 clinical isolate after 20 to 24 hrs by two-fold microdilution method

O=C1c2cccnc2C(=O)c2c1c(C(=O)OCCCCN1CCOCC1)c1ccc(Br)cn21 showed an MIC (Staphylococcus aureus [1]) of 0.5 µg/mL (≈ 0.976 µM), an MIC (Staphylococcus aureus [2]) of 0.25 µg/mL (≈ 0.488 µM) and an MIC (Staphylococcus aureus [3]) of 0.125 µg/mL (≈ 0.244 µM). The MIC (Staphylococcus aureus [4]) was 0.5 µg/mL (≈ 0.976 µM), the MIC (Staphylococcus aureus [5]) was 0.063 µg/mL (≈ 0.123 µM) and the MIC (Staphylococcus aureus [6]) was 0.125 µg/mL (≈ 0.244 µM). For the same molecule, the MIC (Staphylococcus aureus [7]) was 0.25 µg/mL (≈ 0.488 µM), the MIC (Staphylococcus aureus [8]) was 0.125 µg/mL (≈ 0.244 µM) and the MIC (Staphylococcus aureus [9]) was 0.25 µg/mL (≈ 0.488 µM). It also gave an MIC (Staphylococcus aureus [10]) of 1 µg/mL (≈ 1.95 µM), an MIC (Staphylococcus aureus [11]) of 0.5 µg/mL (≈ 0.976 µM) and an MIC (Staphylococcus aureus [12]) of 0.125 µg/mL (≈ 0.244 µM). For the same molecule, the MIC (Staphylococcus aureus [13]) was 0.5 µg/mL (≈ 0.976 µM), the MIC (Enterococcus faecalis) was 0.25 µg/mL (≈ 0.488 µM) and the MIC (Escherichia coli) was over 16 µg/mL. For the same molecule, the MIC (Staphylococcus aureus [14]) was 0.5 µg/mL (≈ 0.976 µM), the MIC (Staphylococcus aureus [15]) was 0.5 µg/mL (≈ 0.976 µM) and the MIC (Staphylococcus aureus [16]) was 0.5 µg/mL (≈ 0.976 µM). For the same molecule, the MIC (Staphylococcus aureus [17]) was 0.25 µg/mL (≈ 0.488 µM), the MIC (Staphylococcus aureus [18]) was 0.5 µg/mL (≈ 0.976 µM) and the MIC (Staphylococcus aureus [19]) was 0.125 µg/mL (≈ 0.244 µM). For the same molecule, the MIC (Staphylococcus aureus [20]) was 0.25 µg/mL (≈ 0.488 µM), the MIC (Staphylococcus aureus [21]) was 0.5 µg/mL (≈ 0.976 µM) and the MIC (Staphylococcus aureus [22]) was 0.125 µg/mL (≈ 0.244 µM). It also gave an MIC [23] of at most 0.0078 µg/mL, an MIC (Staphylococcus aureus [24]) of 0.125 µg/mL (≈ 0.244 µM) and an MIC [25] of 0.125 µg/mL (≈ 0.244 µM). It also gave an MIC (Staphylococcus aureus [26]) of 0.25 µg/mL (≈ 0.488 µM), an MIC (Streptococcus pneumoniae) of 4 µg/mL (≈ 7.81 µM) and an MIC (Staphylococcus aureus [27]) of over 16 µg/mL. For the same molecule, the MIC (Staphylococcus aureus [28]) was 0.25 µg/mL (≈ 0.488 µM), the MIC (Staphylococcus aureus [29]) was 0.5 µg/mL (≈ 0.976 µM) and the MIC (Staphylococcus aureus [30]) was 0.25 µg/mL (≈ 0.488 µM). For the same molecule, the MIC (Staphylococcus aureus [31]) was 1 µg/mL (≈ 1.95 µM), the MIC (Staphylococcus aureus [32]) was 0.5 µg/mL (≈ 0.976 µM) and the MIC (Staphylococcus aureus [33]) was 0.5 µg/mL (≈ 0.976 µM). The MIC (Staphylococcus aureus [34]) was 0.25 µg/mL (≈ 0.488 µM), the MIC (Staphylococcus aureus [35]) was 0.5 µg/mL (≈ 0.976 µM) and the MIC (Staphylococcus aureus [36]) was 16 µg/mL (≈ 31.2 µM). The MIC (Staphylococcus aureus [37]) was 1 µg/mL (≈ 1.95 µM), the MIC (Staphylococcus aureus [38]) was 0.5 µg/mL (≈ 0.976 µM) and the MIC (Staphylococcus aureus [39]) was 0.5 µg/mL (≈ 0.976 µM). The MIC (Staphylococcus aureus [40]) was 0.125 µg/mL (≈ 0.244 µM), the MIC (Staphylococcus aureus [41]) was 0.5 µg/mL (≈ 0.976 µM) and the MIC (Staphylococcus aureus [42]) was 0.25 µg/mL (≈ 0.488 µM). It also gave an MIC (Staphylococcus aureus [43]) of 0.063 µg/mL (≈ 0.123 µM) and an MIC (Staphylococcus aureus [44]) of 0.25 µg/mL (≈ 0.488 µM).
